Test results from patent US4052455A, “Styrylamidines” (Mead Johnson & Company, priority 1975, dated 1977).
Where a name gives a salt, the structure may show the parent alone.

Columns and labels:
platelet aggregation = assay: Born/O'Brien nephelometric platelet aggregation test in platelet rich plasma (ADP or collagen induced); assay type: cell-based; conditions: human or rabbit platelet rich plasma, 50% or more reduction, read-out: Concentration at which collagen or adenosine diphosphate induced platelet aggregation is reduced by 50% or more
Procedure: (§1) Measurement of the antithrombogenic activity of the compounds of Formula I is carried out by standard pharmacological tests essentially described by Born, Nature, 194, 927 (1962) and O'Brien, J. Clin. Path., 15, 446 (1962). This test comprises a nephelometric method is which the change in turbidity of a specimen of platelet rich plasma (human or rabbit) is measured on causation of platelet aggregation by addition of a thrombogenic inducing agent such as adenosine diphosphate or collagen. The compounds of the present invention are effective antithrombogenic agents according to this test at concentrations in the order of about 0.5 to 90 mcg./0.5 ml. platelet rich plasma. In the intact animal, the antithrombogenic effect is readily observed by applying the above test to blood samples withdrawn prior to and after administration of a compound of the present invention.

urine output = assay: Lipschitz diuretic test; assay type: in vivo; conditions: oral; 12.5 mg./kg. body weight
From the text: N-(2,6-dichlorostyryl)acetamidine is orally effective as a diuretic agent according to the W. L. Lipschitz, et al., J. Pharmacol. Expt.

mouse electroshock = assay: Mouse electroshock test of Swinyard (anticonvulsant); assay type: in vivo; conditions: oral
From the text: Aside from antithrombogenic and analgesic effects, compounds of Formula I wherein R1 and R2 substituents are halogen (particularly chlorine), R3 is hydrogen or methyl and A is selected from the group consisting of lower alkyl of from 1 to 8 carbon atoms inclusive or cycloalkyl of from 3 to 6 carbon atoms inclusive, are useful as anticonvulsant, hypotensive and antihypertensive agents. […] For example, N-(2,6-dichlorostyryl)acetamidine in the mouse electroshock test of E. A. Swinyard, J. Amer. Pharm.

blood pressure [1] = assay: Blood pressure in spontaneous hypertensive rat; assay type: in vivo; conditions: oral 5 to 50.0 mg./kg.
Procedure: (§2) For instance, at 1.0 mg./kg. body weight, this compound provides a 33% reduction in blood pressure while at 10.0 mg./kg. body weight, a 64% reduction in blood pressure is obtained. In the same test procedure, the prior art cinnamylamidine, N-(4-chlorocinnamyl)acetamidine, provided a 12% increase in blood pressure with a 6% decrease in heart rate at a dose of 1.0 mg./kg. body weight. At a dose of 10.0 mg./kg. body weight, the prior art cinnamylamidine provides an increase of 26% in blood pressure.

blood pressure [2] = assay: Blood pressure and heart rate in anesthetized normotensive dog; assay type: in vivo
Procedure: as §2

[3] = tested on: blood platelet aggregation; assay: Oral administration to rabbits; inhibition of blood platelet aggregation induced by ADP or collagen in platelet rich plasma (Example 56); assay type: in vivo; conditions: rabbit, oral single dose 25 mg./kg.; for % Inhibition of Blood Platelet Aggregation Induced by ADP: ADP 0.25-1.0 microgram; for % Inhibition of Blood Platelet Aggregation Induced by Collagen: lowest amount of collagen giving maximal aggregation
Procedure: as §1
The styrylamidine is orally administered to each rabbit in a group of 2-6 rabbits at a single dose of 25 mg./kg. body weight. A 8 ml. portion of blood is drawn just prior to dosing in order to obtain a control value and at various time periods thereafter. Platelet rich plasma is prepared from each blood sample by centrifugation at 200 times gravity for 10 min. at room temperature. Samples (0.5 ml.) of platelet rich plasma are tested for their ability to aggregate with either collagen or adenosine-5'-diphosphate added as specified in the modification of Born and O'Brien method which has been fully described hereinbefore. The results shown below indicate the inhibition of blood platelet aggregation induced by the lowest amount of collagen giving maximal aggregation or 0.25-1.0 microgram adenosine-5'-diphosphate for representative amidines.

[4] = tested on: phenylquinone writhing syndrome; assay: Phenylquinone writhing test (analgesic activity); assay type: in vivo; conditions: mice
Procedure: In this test, groups of 10-20 mice are injected subcutaneously or orally with different doses of the test compound. At predetermined time intervals, the mice receive 2.5 mg./kg. phenylquinone intraperitoneally. The total number of writhing episodes is counted for each mouse for 10 min. and the average percent decrease in writhing recorded for each dose.
The novel styrylsulfonylamidines of Formula V in addition to being useful as precursors to the styrylamidine products of Formula I have analgesic utility as measured in the foregoing phenylquinone writhing test. A preferred class of styrylsulfonylamidines of Formula V having particularly significant analgesic activity are those wherein R1 and R2 are each hydrogen, nitro or halogen and A is phenyl or lower alkyl of from 1 to 8 carbon atoms inclusive. Analgesic activity at the time interval indicated following administration of compounds representative of this class are given in Table I below.

[5] = subcutaneous 6 mg./kg., time interval 30 min.

`N=C(N/C=C/c1ccc([N+](=O)[O-])cc1)c1cc(N)cc(N)c1` [3,5-DIAMINO-N-(4-NITROSTYRYL)-BENZAMIDINE TRIHYDROCHLORIDE] was tested, and the IC50 (platelet aggregation) was < 30 µg/mL.

`N=C(N/C=C/c1ccc(N)cc1)c1cccc(N)c1` [3-AMINO-N-(4-AMINOSTYRYL)BENZAMIDINE TRIHYDROCHLORIDE MONOHYDRATE] was tested, and the IC50 (platelet aggregation) was < 30 µg/mL.

`CN(C)c1ccc(C(=N)N/C=C/c2ccc([N+](=O)[O-])cc2)cc1` [4-(DIMETHYLAMINO)-N-(4-NITROSTYRYL)-BENZAMIDINE ISETHIONATE] was tested, and the IC50 (platelet aggregation) was < 30 µg/mL.

`N=C(N/C=C/c1ccc(N)cc1)c1ccc(N)cc1` [4-AMINO-N-(4-AMINOSTYRYL)BENZAMIDINE TRIHYDROCHLORIDE] was tested, and the IC50 (platelet aggregation) was < 30 µg/mL.

With `N=C(N/C=C/c1ccc([N+](=O)[O-])cc1)c1ccc(N)cc1` [4-AMINO-N-(4-NITROSTYRYL)BENZAMIDINE HYDROCHLORIDE] the IC50 (platelet aggregation) was < 30 µg/mL.

In the case of `CC(=N)N/C=C/c1c(Cl)cccc1Cl` [N-(2,6-dichlorostyryl)acetamidine], the “Urine output” value (urine output) is reported as “doubled the urine output”, the ED50 (mouse electroshock) is reported as 44 mg/kg and the “Reduction of blood pressure” value (blood pressure [1]) is reported as “substantial reduction of blood pressure”. For the same compound, the “Reduction in blood pressure” value (blood pressure [2]; intravenous 1.0 mg./kg.) was 33%, the “Reduction in blood pressure” value (blood pressure [2]; intravenous 10.0 mg./kg.) was 64% and the “Reduction in blood pressure” value (blood pressure [2]; intravenous 0.01 to 10 mg./kg.) was “dose related reduction in blood pressure”.

For `N=C(N/C=C/c1ccccc1N)c1ccccc1` [N-(2-AMINOSTYRYL)BENZAMIDINE DIHYDROCHLORIDE], the IC50 (platelet aggregation) was < 30 µg/mL.

With `CC(C)(C)C(=N)N/C=C/c1ccc(Cl)c(Cl)c1` [N-(3,4-DICHLOROSTYRYL)-2,2-DIMETHYLPROPIONAMIDINE] the “% Inhibition of Blood Platelet Aggregation Induced by ADP” value (shortened to “% Inhibition … by ADP”) ([3]; 1 hr.) was 60%, the “% Inhibition … by ADP” value ([3]; 2 hrs.) was 25% and the “% Inhibition … by ADP” value ([3]; 4 hrs.) was 67%. For the same compound, the “% Inhibition … by ADP” value ([3]; 6 hrs.) was 87%, the “% Inhibition … by ADP” value ([3]; 24 hrs.) was 0% and the “% Inhibition of Blood Platelet Aggregation Induced by Collagen” value (“% Inhibition … by Collagen” for short) ([3]; 1 hr.) was 78%. The “% Inhibition … by Collagen” value ([3]; 2 hrs.) was 80%, the “% Inhibition … by Collagen” value ([3]; 4 hrs.) was 95% and the “% Inhibition … by Collagen” value ([3]; 6 hrs.) was 95%. The “% Inhibition … by Collagen” value ([3]; 24 hrs.) was 0%.

With `CC(=N)N/C=C/c1ccc(Cl)c(Cl)c1` [N-(3,4-DICHLOROSTYRYL)ACETAMIDINE HYDROCHLORIDE] the “% Inhibition … by ADP” value ([3]; 1 hr.) was 50%, the “% Inhibition … by ADP” value ([3]; 2 hrs.) was 52% and the “% Inhibition … by ADP” value ([3]; 4 hrs.) was 67%. For the same compound, the “% Inhibition … by ADP” value ([3]; 6 hrs.) was 55%, the “% Inhibition … by ADP” value ([3]; 24 hrs.) was 0% and the “% Inhibition … by Collagen” value ([3]; 1 hr.) was 67%. The “% Inhibition … by Collagen” value ([3]; 2 hrs.) was 50%, the “% Inhibition … by Collagen” value ([3]; 4 hrs.) was 85% and the “% Inhibition … by Collagen” value ([3]; 6 hrs.) was 55%. For the same compound, the “% Inhibition … by Collagen” value ([3]; 24 hrs.) was 0% and the IC50 (platelet aggregation) was < 30 µg/mL.

For `N=C(N/C=C/c1ccc(Cl)c(Cl)c1)c1ccccc1` [N-(3,4-DICHLOROSTYRYL)BENZAMIDINE HYDROCHLORIDE], the “% Inhibition … by ADP” value ([3]; 0.5 hrs.) was 61%, the “% Inhibition … by ADP” value ([3]; 2 hrs.) was 54% and the “% Inhibition … by ADP” value ([3]; 4 hrs.) was 30%. The “% Inhibition … by ADP” value ([3]; 6 hrs.) was 22%, the “% Inhibition … by ADP” value ([3]; 24 hrs.) was 0% and the “% Inhibition … by Collagen” value ([3]; 0.5 hrs.) was 73%. The “% Inhibition … by Collagen” value ([3]; 2 hrs.) was 65%, the “% Inhibition … by Collagen” value ([3]; 4 hrs.) was 26% and the “% Inhibition … by Collagen” value ([3]; 6 hrs.) was 3%. For the same compound, the “% Inhibition … by Collagen” value ([3]; 24 hrs.) was 0%.

In the case of `CCCC(=N)N/C=C/c1ccc(Cl)c(Cl)c1` [N-(3,4-DICHLOROSTYRYL)BUTYRAMIDINE HYDROCHLORIDE], the “% Inhibition … by ADP” value ([3]; 1 hr.) is reported as 18%, the “% Inhibition … by ADP” value ([3]; 2 hrs.) is reported as 67% and the “% Inhibition … by ADP” value ([3]; 4 hrs.) is reported as 37%. For the same compound, the “% Inhibition … by ADP” value ([3]; 6 hrs.) was 30%, the “% Inhibition … by ADP” value ([3]; 24 hrs.) was 0% and the “% Inhibition … by Collagen” value ([3]; 1 hr.) was 30%. The “% Inhibition … by Collagen” value ([3]; 2 hrs.) was 92%, the “% Inhibition … by Collagen” value ([3]; 4 hrs.) was 32% and the “% Inhibition … by Collagen” value ([3]; 6 hrs.) was 45%. For the same compound, the “% Inhibition … by Collagen” value ([3]; 24 hrs.) was 0%.

For `N=C(N/C=C/c1ccc(Cl)c(Cl)c1)C1CC1` [N-(3,4-DICHLOROSTYRYL)CYCLOPROPANECARBOXAMIDINE HYDROCHLORIDE], the “% Inhibition … by ADP” value ([3]; 1 hr.) was 60%, the “% Inhibition … by ADP” value ([3]; 2 hrs.) was 55% and the “% Inhibition … by ADP” value ([3]; 4 hrs.) was 90%. For the same compound, the “% Inhibition … by ADP” value ([3]; 6 hrs.) was 75%, the “% Inhibition … by ADP” value ([3]; 24 hrs.) was 5% and the “% Inhibition … by Collagen” value ([3]; 1 hr.) was 65%. For the same compound, the “% Inhibition … by Collagen” value ([3]; 2 hrs.) was 85%, the “% Inhibition … by Collagen” value ([3]; 4 hrs.) was 97% and the “% Inhibition … by Collagen” value ([3]; 6 hrs.) was 87%. The “% Inhibition … by Collagen” value ([3]; 24 hrs.) was 15%.

With `N=C(N/C=C/c1ccc(Cl)c(Cl)c1)C1CC1` [N-(3,4-dichlorostyryl)cyclopropanecarboxamidine] the IC50 (platelet aggregation) was < 30 µg/mL.

For `CC(=N)N/C=C/c1ccc(C2CCCCC2)c(Br)c1` [N-(3-BROMO-4-CYCLOHEXYLSTYRYL)ACETAMIDINE HYDROCHLORIDE], the IC50 (platelet aggregation) was < 30 µg/mL.

For `CC(=O)Nc1ccc(/C=C/NC(=N)c2ccccc2)cc1` [N-(4-ACETAMIDOSTYRYL)BENZAMIDINE HYDROCHLORIDE], the IC50 (platelet aggregation) was < 30 µg/mL.

With `N=C(N/C=C/c1ccc(N)cc1)c1ccccc1` [N-(4-AMINOSTYRYL)BENZAMIDINE DIHYDROCHLORIDE] the IC50 (platelet aggregation) was < 30 µg/mL.

For `CC(=N)NS(=O)(=O)C=Cc1ccc([N+](=O)[O-])cc1` [N-(4-nitrostyrylsulfonyl)-acetamidine, N-(4-NITROSTYRYLSULFONYL)ACETAMIDINE], the “Analgesic activity, Percent Inhibition” value ([4]; subcutaneous 6 mg./kg., time interval 60 min.) was 36%.

In the case of `CC(=N)NS(=O)(=O)C=Cc1ccccc1` [N-(styrylsulfonyl)acetamidine, N-(STYRYLSULFONYL)ACETAMIDINE], the “Analgesic activity, Percent Inhibition” value ([4]; subcutaneous 6 mg./kg., time interval 15 min.) is reported as 38%.

With `N=C(NS(=O)(=O)C=Cc1ccccc1)c1ccccc1` [N-(styrylsulfonyl)benzamidine, N-(STYRYLSULFONYL)BENZAMIDINE] the “Analgesic activity, Percent Inhibition” value ([4]; oral 100 mg./kg., time interval 60 min.) was 26% and the “Analgesic activity, Percent Inhibition” value [4, 5] was 36%.

`CC(=N)NS(=O)(=O)C=Cc1ccc(Cl)c(Cl)c1` [N-[(3,4-DICHLOROSTYRYL)SULFONYL]ACETAMIDINE] was tested, and the “Analgesic activity, Percent Inhibition” value ([4]; oral 100 mg./kg., time interval 120 min.) was 36% and the “Analgesic activity, Percent Inhibition” value [4, 5] was 28%.

In the case of `N=C(N/C=C/c1ccccc1)c1ccccc1` [N-styrylbenzamidine hydrochloride, N-STYRYLBENZAMIDINE HYDROCHLORIDE], the IC50 (platelet aggregation) is reported as < 30 µg/mL.
